In ChEMBL document CHEMBL5053489, “Effects of Eugenol and Dehydrodieugenol B from Nectandra leucantha against Lipopolysaccharide (LPS)-Induced Experimental Acute Lung Inflammation” (J Nat Prod, 2021):
Calls of active or inactive are those of the source. The calls are words filed in the database; no cut-off is given here.

How the values were obtained:
[1] = biological target: c-Jun N-terminal kinase (Mus musculus) (UniProt Q91Y86+Q9WTU6+Q61831); assay: Inhibition of LPS-induced JNK phosphorylation in BALB/c mouse at 30 mg/kg administered 6 hrs after LPS stimulation by western blot analysis; assay type: organism-based
c-Jun N-terminal kinase (Mus musculus), sequence (Q61831 whole entry, looked up): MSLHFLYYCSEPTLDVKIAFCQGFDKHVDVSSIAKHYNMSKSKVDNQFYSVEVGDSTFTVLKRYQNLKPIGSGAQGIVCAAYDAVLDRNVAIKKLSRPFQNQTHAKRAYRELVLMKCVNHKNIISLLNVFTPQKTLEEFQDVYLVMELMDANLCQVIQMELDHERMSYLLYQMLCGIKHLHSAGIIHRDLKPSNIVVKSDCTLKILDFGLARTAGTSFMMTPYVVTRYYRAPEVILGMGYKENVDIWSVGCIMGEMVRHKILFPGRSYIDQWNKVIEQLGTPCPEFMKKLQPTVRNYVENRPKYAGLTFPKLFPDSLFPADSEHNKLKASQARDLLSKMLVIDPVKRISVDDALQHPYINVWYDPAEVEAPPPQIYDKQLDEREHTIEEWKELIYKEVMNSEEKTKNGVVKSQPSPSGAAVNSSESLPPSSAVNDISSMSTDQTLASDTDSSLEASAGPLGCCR
c-Jun N-terminal kinase (Mus musculus), sequence (Q91Y86 whole entry, looked up): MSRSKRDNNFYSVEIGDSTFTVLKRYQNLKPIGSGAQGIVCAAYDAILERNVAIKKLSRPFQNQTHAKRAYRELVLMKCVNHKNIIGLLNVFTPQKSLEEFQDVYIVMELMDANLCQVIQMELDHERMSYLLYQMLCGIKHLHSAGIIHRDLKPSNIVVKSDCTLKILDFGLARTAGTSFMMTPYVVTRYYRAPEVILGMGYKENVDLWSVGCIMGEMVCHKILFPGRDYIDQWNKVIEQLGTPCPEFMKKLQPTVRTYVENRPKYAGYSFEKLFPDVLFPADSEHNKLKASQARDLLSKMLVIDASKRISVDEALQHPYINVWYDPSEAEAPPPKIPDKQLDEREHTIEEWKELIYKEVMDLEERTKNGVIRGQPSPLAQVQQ
c-Jun N-terminal kinase (Mus musculus), sequence (Q9WTU6 whole entry, looked up): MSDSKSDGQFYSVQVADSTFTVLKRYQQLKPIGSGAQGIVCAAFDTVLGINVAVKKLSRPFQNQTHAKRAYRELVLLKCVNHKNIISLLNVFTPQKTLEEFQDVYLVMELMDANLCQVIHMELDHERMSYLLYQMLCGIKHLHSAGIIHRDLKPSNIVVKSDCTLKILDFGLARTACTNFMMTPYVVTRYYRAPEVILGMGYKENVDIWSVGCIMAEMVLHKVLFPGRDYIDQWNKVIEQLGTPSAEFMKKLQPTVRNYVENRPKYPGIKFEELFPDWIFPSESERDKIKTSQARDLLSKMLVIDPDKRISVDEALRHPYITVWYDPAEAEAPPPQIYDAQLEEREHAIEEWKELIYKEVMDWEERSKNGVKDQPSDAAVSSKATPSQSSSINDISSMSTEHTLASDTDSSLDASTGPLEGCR

Mus musculus [2] = assay: Antiinflammatory activity in BALB/c mouse model of LPS-induced acute respiratory distress syndrome assessed as improvement in lung mechanics by measuring respiratory system resistance at 30 mg/kg administered 6 hrs after LPS-stimulation and measured after 24 hrs by forced oscillation technique; assay type: functional, organism-based
Mus musculus [3] = assay: Antiinflammatory activity in BALB/c mouse model of LPS-induced acute respiratory distress syndrome assessed as reduction in total inflammatory cells in BALF at 30 mg/kg administered 6 hrs after LPS-stimulation by Diff-quick stain based analysis; assay type: functional, organism-based
Mus musculus [4] = assay: Antiinflammatory activity in BALB/c mouse model of LPS-induced acute respiratory distress syndrome assessed as reduction in neutrophils in peripheral blood at 30 mg/kg administered 6 hrs after LPS-stimulation and measured after 24 hrs by Diff-quick stain based analysis; assay type: functional, organism-based
Mus musculus [5] = assay: Antiinflammatory activity in BALB/c mouse model of LPS-induced acute respiratory distress syndrome assessed as reduction in IL-1beta level in BALF at 30 mg/kg administered 6 hrs after LPS-stimulation by ELISA; assay type: functional, organism-based
Mus musculus [6] = assay: Antiinflammatory activity in BALB/c mouse model of LPS-induced acute respiratory distress syndrome assessed as reduction in macrophages in BALF at 30 mg/kg administered 6 hrs after LPS-stimulation by Diff-quick stain based analysis; assay type: functional, organism-based
Mus musculus [7] = assay: Antiinflammatory activity in BALB/c mouse model of LPS-induced acute respiratory distress syndrome assessed as improvement in lung mechanics by measuring tissue elastance at 30 mg/kg administered 6 hrs after LPS-stimulation and measured after 24 hrs by forced oscillation technique; assay type: functional, organism-based
Mus musculus [8] = assay: Antiinflammatory activity in BALB/c mouse model of LPS-induced acute respiratory distress syndrome assessed as reduction in monocytes in peripheral blood at 30 mg/kg administered 6 hrs after LPS-stimulation and measured after 24 hrs by Diff-quick stain based analysis; assay type: functional, organism-based
Mus musculus [9] = assay: Antiinflammatory activity in BALB/c mouse model of LPS-induced acute respiratory distress syndrome assessed as improvement in lung mechanics by measuring respiratory system elastance at 30 mg/kg administered 6 hrs after LPS-stimulation and measured after 24 hrs by forced oscillation technique; assay type: functional, organism-based
Mus musculus [10] = assay: (§1) Antiinflammatory activity in BALB/c mouse model of LPS-induced acute respiratory distress syndrome assessed as reduction in iNOS expression in alveolar septa at 30 mg/kg administered 6 hrs after LPS-stimulation and measured after 24 hrs by pointing-count technique based immunohistochemistry analysis; assay type: functional, organism-based
Mus musculus [11] = assay: Antiinflammatory activity in BALB/c mouse model of LPS-induced acute respiratory distress syndrome assessed as reduction in polymorphonuclear cells in alveolar septa at 30 mg/kg administered 6 hrs after LPS-stimulation by pointing-count technique; assay type: functional, organism-based
Mus musculus [12] = assay: Antiinflammatory activity in BALB/c mouse model of LPS-induced acute respiratory distress syndrome assessed as reduction in density of TIMP-1 positive cells in lung parenchyma at 30 mg/kg administered 6 hrs after LPS-stimulation by pointing-count technique based immunohistochemistry analysis; assay type: functional, organism-based
Mus musculus [13] = assay: Antiinflammatory activity in BALB/c mouse model of LPS-induced acute respiratory distress syndrome assessed as reduction in density of MMP-9 positive cells in lung parenchyma at 30 mg/kg administered 6 hrs after LPS-stimulation by pointing-count technique based immunohistochemistry analysis; assay type: functional, organism-based
Mus musculus [14] = assay: as §1, with “9-iso-PGF2alpha” for “iNOS”; assay type: functional, organism-based
Mus musculus [15] = assay: Antiinflammatory activity in BALB/c mouse model of LPS-induced acute respiratory distress syndrome assessed as reduction in TNF-alpha level in BALF at 30 mg/kg administered 6 hrs after LPS-stimulation by ELISA; assay type: functional, organism-based
Mus musculus [16] = assay: as §1, with “collagen deposition” for “iNOS expression”, “lung parenchyma” for “alveolar septa”; assay type: functional, organism-based
Mus musculus [17] = assay: Antiinflammatory activity in BALB/c mouse model of LPS-induced acute respiratory distress syndrome assessed as reduction in neutrophils in BALF at 30 mg/kg administered 6 hrs after LPS-stimulation by Diff-quick stain based analysis; assay type: functional, organism-based
Mus musculus [18] = assay: Antiinflammatory activity in BALB/c mouse model of LPS-induced acute respiratory distress syndrome assessed as reduction in neutrophils in BALF at 20 to 60 mg/kg administered 6 hrs after LPS-stimulation; assay type: functional, organism-based; conditions: dose 20-60 mg/kg
Mus musculus [19] = assay: Antiinflammatory activity in BALB/c mouse model of LPS-induced acute respiratory distress syndrome assessed as reduction in pulmonary edema by measuring wet/dry weight ratio at 30 mg/kg administered 6 hrs after LPS-stimulation and measured after […]; assay type: functional, organism-based
Mus musculus [20] = assay: Antiinflammatory activity in BALB/c mouse model of LPS-induced acute respiratory distress syndrome assessed as reduction in lymphocytes in peripheral blood at 30 mg/kg administered 6 hrs after LPS-stimulation and measured after 24 hrs by Diff-quick stain based analysis; assay type: functional, organism-based
Mus musculus [21] = assay: Antiinflammatory activity in BALB/c mouse model of LPS-induced acute respiratory distress syndrome assessed as reduction in IL-6 level in BALF at 30 mg/kg administered 6 hrs after LPS-stimulation by ELISA; assay type: functional, organism-based
Mus musculus [22] = assay: Toxicity in BALB/c mouse model of LPS-induced acute respiratory distress syndrome assessed as reduction in body mass loss percentage at 30 mg/kg administered 6 hrs after LPS-stimulation; assay type: organism-based; conditions: in vivo
Mus musculus [23] = assay: Antiinflammatory activity in BALB/c mouse model of LPS-induced acute respiratory distress syndrome assessed as reduction in leukocytes in peripheral blood at 30 mg/kg administered 6 hrs after LPS-stimulation and measured after 24 hrs by Neubauer counting chamber based analysis; assay type: functional, organism-based
Mus musculus [24] = assay: Antiinflammatory activity in BALB/c mouse model of LPS-induced acute respiratory distress syndrome assessed as improvement in lung mechanics by measuring tissue damping at 30 mg/kg administered 6 hrs after LPS-stimulation and measured after 24 hrs by forced oscillation technique; assay type: functional, organism-based
Mus musculus [25] = assay: Antiinflammatory activity in BALB/c mouse model of LPS-induced acute respiratory distress syndrome assessed as reduction in inflammatory cells in alveolar septa at 30 mg/kg administered 6 hrs after LPS-stimulation; assay type: functional, organism-based

Q: How did the inhibition [1] turn out when `C=CCc1ccc(Oc2cc(CC=C)cc(OC)c2O)c(OC)c1` was run?
A: Active

Q: `C=CCc1ccc(O)c(OC)c1` [EUGENOL] was tested. Which Activity (Mus musculus [2]) did it give?
A: inactive

Q: And the Activity (Mus musculus [3])?
A: Active

Q: And the Activity (Mus musculus [4])?
A: Active

Q: What about the Activity (Mus musculus [5]) of the same molecule?
A: Active

Q: What about the Activity (Mus musculus [6]) of the same molecule?
A: Active

Q: What about the inhibition [1] of the same molecule?
A: Active

Q: And the Activity (Mus musculus [7])?
A: Active

Q: What about the Activity (Mus musculus [8]) of the same molecule?
A: Active

Q: What about the Activity (Mus musculus [9]) of the same molecule?
A: Active

Q: What about the Activity (Mus musculus [10]) of the same molecule?
A: Active

Q: And the Activity (Mus musculus [11])?
A: Active

Q: And the Activity (Mus musculus [12])?
A: Active

Q: What about the Activity (Mus musculus [13]) of the same molecule?
A: Active

Q: What about the Activity (Mus musculus [14]) of the same molecule?
A: Active

Q: And the Activity (Mus musculus [15])?
A: inactive

Q: What about the Activity (Mus musculus [16]) of the same molecule?
A: Active

Q: What about the Activity (Mus musculus [17]) of the same molecule?
A: Active

Q: And the Activity (Mus musculus [18])?
A: Active

Q: What about the Activity (Mus musculus [19]) of the same molecule?
A: Active

Q: What about the Activity (Mus musculus [20]) of the same molecule?
A: Active

Q: What about the Activity (Mus musculus [21]) of the same molecule?
A: Active

Q: What about the Activity (Mus musculus [22]) of the same molecule?
A: Non-Toxic

Q: What about the Activity (Mus musculus [23]) of the same molecule?
A: Active

Q: And the Activity (Mus musculus [24])?
A: Active

Q: What about the Activity (Mus musculus [25]) of the same molecule?
A: Active
